Data reported in patent US5567704A, “R-enatiomerically pure hydroxylated xanthine compounds to treat baldness” (priority 1995, dated 1996).

Tests used:
[1] = system: lysophosphatidic acid acyl transferase (LPAAT); test: in vitro inhibition of LPAAT in 3T3 Ras-transformed fibroblasts stimulated with IL-1β; assay type: cell-based; conditions: 3T3 Ras-transformed fibroblasts, IL-1β, FIG. 17
Experimental: FIG. 17 illustrates a comparison of CT1501R, its S isomer CT1501S, and PTX on in vitro inhibition of lysophosphatidic acid acyl transferase (LPAAT), an enzyme involved in second messenger signaling. […] LPAAT activity was determined in 3T3 Ras-transformed fibroblasts stimulated with IL-1β.
One in vitro assay measures inhibition of the relevant enzymes lysophosphatidic acid acyltransferase (LPAAT) and phosphatidic acid phosphoryl hydrolase (PAPH). The assay involves incubating of target cells with a primary stimulus (e.g., a variety of cytokines, growth factors, oncogene products, putative therapeutic agents, irradiation, viral infection, toxins, bacterial infection and the products thereof, and any stimulus which, if not counteracted, has a deleterious effect on the target cell) in the presence or absence of an inventive compound at varying dosage levels. Target cells include, for example, subcellular entities, such as, microsomes derived from mesenchymal and/or ectodermal cells, particularly microsomes from marrow stromal cells or human or rat mesangial cells; microsomes or synaptosomes derived from brain; plasma membrane-enriched microsomes, plasma membranes derived as described in Bursten et at. (J. Biol. Chem. 226:20732-20743, 1991 ), or detergent-solubilized microsomes; synaptosomes, and membranes or other cell preparations solubilized using, for example, NP-40, Miranal, SDS or other neutral detergents; and detergent-solubilized, recombinant, or further purified preparations of cell proteins, including the proteins LPAAT and/or PAPH. After incubation for short periods of time, cell lipids are extracted and assayed by […] according to standard procedures. Briefly, lipids are extracted using, for example, chloroform:methanol 2:1 (v/v), and the extracts are then subjected to HPLC as described in Bursten and Harris, Biochemistry 30:6195-6203, 1991. A Rainin® mu-Porasil column is used with a 3:4 hexane:propanol organic carrier and a 1-10% water gradient during the first 10 minutes of separation. Detection of the peaks in the elution pattern is by absorption in the range of ultraviolet which detects isolated double bonds. The relevant peaks of unsaturated PA and DAG are shown in the elution pattern. It is important to note that the assay method permits discrimination between various forms of PA and DAG so that those relevant to the pathway affected by the (R) or (S) compounds of the invention can be measured directly. Confirmation of the nature of the acyl substituents of these components is accomplished using fast-atom bombardment mass spectroscopy. Thus, the relevant unsaturated (non-arachidonic) PA and DAG subspecies may be detected. The time periods employed are 5-60 seconds after stimulation with the primary stimulus, such as a cytokine. This technique permits assessment of the levels of various lipid components as a function of time.

[2] = metabolized in humans; cited from earlier work
[3] = system: stromelysin/PUMP-1; test: PUMP-1 activity induced by IL-1; assay type: cell-based; conditions: induced by 100 U/ml of IL-1
From the text: Metalloproteases mediate tissue damage such as glomerular diseases of the kidney, joint destruction in arthritis, and lung destruction in emphysema, and play a role in tumor metastases. Three examples of metalloproteases include a 92 kD type V gelatinase induced by TNF, IL-1 and PDGF plus bFGF, a 72 kD type IV collagenase that is usually constitutive and induced by TNF or IL-1, and a stromelysin/PUMP-1 induced by TNF and IL-1. The inventive compounds can inhibit TNF or IL-1 induction of the 92 kD type V gelatinase inducable metalloprotease. Moreover, CT 1501R reduced PUMP- 1 activity induced by 100 U/ml of IL-1 to 15% of its control levels. […] Accordingly, the inventive compounds prevent induction of certain metalloproteases induced by IL-1 or TNF and are not involved with constitutively produced proteases (e.g., 72 kD type IV collagenase) involved in normal tissue remodeling.

[4] = system: smooth muscle cell; test: smooth muscle proliferation stimulated by PDGF and IL-1; assay type: cell-based; conditions: PDGF and IL-1; drug added two hours prior, FIG. 4
From the text: CT1501R and PTX were separately added to the cells two hours prior to activation with PDGF and IL-1.

[5] = system: PBMC (peripheral blood mononuclear cells); test: two-way mixed lymphocyte reaction (MLR); assay type: cell-based, human; conditions: FIG. 1
From the text: Various in vitro assays can be used to measure effects of the inventive compounds to module immune activity and have antitumor activity using a variety of cellular types. For example, a mixed lymphocyte reaction (MLR) provides a valuable screening tool to determine biological activity of each inventive compound. In the MLR, PBMCs (peripheral blood mononuclear cells) are obtained by drawing whole blood from healthy volunteers in a heparinized container and diluted with an equal volume of hanks balanced salt solution (HBSS). This mixture is layered on a sucrose density gradient, such as a Ficoll-Hypaque® gradient (specific gravity 1.08), and centrifuged at 1000× g for 25 minutes at room temperature or cooler. PBMC are obtained from a band at a plasma-Ficoll interface, separated and washed at least twice in a saline solution, such as HBSS. Contaminating red cells are lysed, such as by ACK lysis for 10 min at 37° C., and the PBMCs are washed twice in HBSS. The pellet of purified PBMCs is resuspended in complete medium, such as RPMI 1640 plus 20% human inactivated serum. Proliferative response of PBMC to allogeneic stimulation is determined in a two-way MLR performed in a 96-well microtiter plate. […] At the conclusion of the incubation tritiated thymidine is added (for example, 1 μCi/well of 40 to 60 Ci/mmole) and proliferation determined by liquid scintillation counting. […]

[6] = system: nu/nu mice; test: nude mouse hair studies, topical application; assay type: in vivo; conditions: second experiment; topical twice daily, 34 days
From the text: This example illustrates nude mouse hair studies involving topical application of CT1501R. Six to eight week old, female, nu/nu mice from Charles River Laboratories were housed at Biosupport Research Support Services (Seattle, Wash.) in autoclaved micro isolator units with hyperchlorinated autoclaved water, irradiated rodent chow and kept under a laminar flow hood. Caging was changed weekly, and water was changed twice weekly. The mice were acclimated for 5 days before beginning each study.
The first topical formulation was prepared by adding CT1501R to a heated hydrophilic ointment (USP) at a 1% concentration, and allowed to solidify.
Nude mice were painted twice daily for 16 days with the first topical formulation of CT1501R on the left flank and another compound in the same base on the right flank with sterile applicators. Mice were handled under the laminar flow hood with applicator wearing face mask and sterile gloves. After 16 days, one mouse was sacrificed by cervical dislocation and skin biopsies were taken of the treated areas of the shoulder/flank and from the non-treated area of the dorsal pelvis (rump). Specimens were placed in 10% buffered formalin solution. Biopsies were sent to a veterinary dermopathologist for histopathology. Six weeks following treatment, a second mouse was euthanatized and biopsied the same as the first. Samples were sent for histopathology.
In a second experiment, topical application of CT1501R was performed along with a commercial topical minoxidil preparation (Rogaine®, Upjohn) that is approved for a hair growth indication. Five to six week old, female, nu/nu mice from Bantin and Kingman Universal were housed at Biosupport Research Support Services (Seattle, Wash.) in autoclaved micro isolator units with hyper chlorinated autoclaved water, irradiated rodent chow and kept under a laminar flow hood. Caging was changed weekly, and water was changed twice weekly. Mice were acclimated for 7 days before beginning study.
CT1501R, and two other compounds were prepared in a topical formulation of 60% ETOH, 10% water and 30% PEG along with vehicle only. Minoxidil was purchased as the commercial preparation Rogaine® from a local pharmacy. Rogaine® is sold in the same formulation base. Mice were identified by unique tail markings specific for each test article. Two mice per group were treated with CT1501R and another compound. One mouse was treated with each of vehicle and minoxidil. The mice were handled under the laminar flow hood with the applicator wearing face mask and sterile gloves. Each mouse was treated twice daily with a separate sterile applicator to avoid contamination of the solutions or the mice. All mice were applied a strip of appropriate test article along the center line of the back from the base of the skull to the base of the tail, approximately 1.5 cm wide. After 34 days all mice were euthanatized by overdose of halothane anesthesia. Skin biopsies were taken from each of the 7 mice over the nape of the neck between the scapulas (approximate size was 1×1.5 cm). All specimens were blotted on gauze to remove blood and fluids, affixed to a cut piece of wooden tongue depressor, and placed specimen side down in separately marked containers with 10% buffered formalin. Specimens were shipped to a veterinary dermatopathologist for qualitative histopathological determinations.

| Structure (SMILES) | inhibition of LPAAT enzyme activity [1] | metabolic conversion of PTX [2] | PUMP-1 activity, % of control levels [3] [%] | inhibition of smooth muscle cell proliferation [4] | proliferative response of PBMC to allogeneic stimulation [5] | hair follicles, subjective histopathological examination [6] |
| --- | --- | --- | --- | --- | --- | --- |
| C[C@H](O)CCCCn1c(=O)c2c(ncn2C)n(C)c1=O [CT1501S] | only CT1501R significantly inhibited enzyme activity | – | – | – | – | – |
| CC(=O)CCCCn1c(=O)c2c(ncn2C)n(C)c1=O [PTX, 1-(5-oxohexyl)-3,7-dimethylxanthine, reference compound] | only CT1501R significantly inhibited enzyme activity | converted almost exclusively to the S enantiomer of MI | 95 | inhibited smooth muscle cell proliferation at the higher doses tested | showed dose-response activity | – |
| Nc1cc(N2CCCCC2)nc(N)[n+]1[O-] [minoxidil, reference compound] | – | – | – | – | – | fair response to treatment |
